Measurements as given in the NIST ThermoML archive (doi:10.1016/j.jct.2012.09.023).
± gives the expanded uncertainty stated by the source.

Details: 101.33 kPa, Liquid, Pycnometric method

SMILES | mass density (303.15 K) | mass density (313.15 K) | mass density (323.15 K)
CN1CCCC1=O.O=C(O)C(F)(F)F [N-methylpyrrolidone trifluoroacetate] | 1232.3 ± 2.1 kg/m3 | 1226.1 ± 2.1 kg/m3 | 1219.9 ± 2.1 kg/m3
CN(C)C=O.O=C(O)C(F)(F)F [N,N-dimethylformamide trifluoroacetate] | 1246 ± 2.2 kg/m3 | 1232.9 ± 2.2 kg/m3 | 1219.9 ± 2.2 kg/m3
CC(=O)N(C)C.O=C(O)C(F)(F)F [N,N-dimethylacetamide trifluoroacetate] | 1227.9 ± 2.1 kg/m3 | 1218 ± 2.1 kg/m3 | 1208.2 ± 2.1 kg/m3
